Measured values from PMC7275090, “Mode of action of teixobactins in cellular membranes” (Nature Communications, 2020).
Bridge positions count the residues as written; N and C are the ends. Square brackets hold non-standard residues; d marks the D form. Ends that are not written are not given here. d(aIle) = CC[C@H](C)[C@@H](N)C(=O)O; dNMeF = CN[C@H](Cc1ccccc1)C(=O)O

Legend:
[1] = Pyrene excimer fluorescence of pyrene-labelled Lipid II in DOPC LUVs (oligomerisation); conditions: 0.5 mol% pyrene-Lipid II, pH 8.0, 20 °C
Method: The oligomerisation of fluorescent pyrene-labelled Lipid II was observed upon binding of [R4L10]-teixobactin. DOPC LUVs containing 0.5 (mol%) of pyrene-labelled Lipid II in buffer (10 mM Tris–Cl, 100 mM NaCl, pH 8.0) were prepared as described above. All fluorescence experiments were performed with a Cary Eclipse (FL0904M005) fluorometer. All samples (1.0 mL) were continuously stirred in a 10 × 4-mm quartz cuvette and kept at 20 °C. [R4L10]-teixobactin was titrated to the LUVs. Pyrene fluorescence was followed with spectral recordings between 360 and 550 nm (λex 350 nm, bandwidth 5 nm). The emission at 380 and 495 nm was recorded and averaged over 50 s, to obtain the values for the monomer and excimer intensity, respectively, to determine the excimer over monomer ratio for all conditions. […]
398, and 417 nm. Moreover, pyrene can display a characteristic fluorescence peak at longer wavelengths (490 nm), which occurs only when two pyrene rings reside within 10 Å of each other and form an excited state dimer, which known as an excimer.2 Source data are provided as a Source Data file. a) Fluorescence spectra of pyrene-labelled Lipid II symmetrically in large unilamellar vesicles (LUVs) at increasing concentrations of [R4L10]-teixobactin. […]
c) Quantification of the excimer over monomer ratio as a function of the pyrene-labelled Lipid II concentration. […]

[2] = ssNMR 15N T1rho relaxation (dynamics of bound teixobactin), Lys-Lipid II; conditions: for Bulk 15N R1rho / Bulk 15N T1rho: 950 MHz, 60 kHz MAS
Method: (§1) Relaxation studies: ^1H-detected ^15N T1rho relaxation experiments were carried out at 950 and 700 MHz magnetic field, respectively, using 60 kHz MAS[51]. The ^15N transverse magnetization decay was probed with a ^15N spinlock field of 17.5 kHz. For the bulk, we measured the intensity of the most intense signal at ~8.80 ^1H ppm. T1rho trajectories were fit to single exponentials.
(§2) Lipid I or II-doped multi-laminar vesicle preparations: DOPC or DOPG lipids were mixed with Lipid I or II in 1:1 MeOH:CHCl3 at the final Lipid I or II molar ratio (0–4 mol%/mol). The mixtures were dried and the lipid films were hydrated by vortexing with 2 mL of a teixobactin solution in 40 mM phosphate, 25 mM NaCl, pH 7.0.
(§3) SSNMR samples: MLVs were collected by centrifugation (20,000×g) and loaded into ssNMR rotors. For 3.2 mm rotors, we used 800 nmol of antibiotic with unlabelled Lipid II or I, while we used 400 nmol with labelled Lipid II. For 1.3 mm rotors, samples contained 200 nmol of antibiotic for unlabelled Lipid II or I, while we used 100 nmol for labelled Lipid II. For all ssNMR samples, we used 4 mol%/mol Lipid II or I in the MLVs.

[3] = ssNMR 15N T1rho relaxation (dynamics of bound teixobactin), mDAP-Lipid II; conditions: 950 MHz, 60 kHz MAS
Method: as §1, §2, §3

[4] = 2D 15N1H ssNMR of bound teixobactin, Lys-Lipid I; assay type: binding; conditions: DOPC liposomes; clear signal changes in the ring motif
Method: 1D, 2D, and 3D ^1H-detected experiments were performed at 60 kHz MAS frequency using magnetic fields of 16.4, 18.8, and 22.2 T (700, 800, and 950 MHz ^1H-frequency) at temperatures of 305 K. All ^1H-detected experiments were dipolar-based. PISSARRO low-power decoupling[47] was used during detection periods. 2D ^13C^13C spin diffusion experiments were performed with PARISxy[48] recoupling at 950 MHz and 15.5, 17, or 18 kHz MAS frequency at 270 K temperature using mixing times of 25–1000 ms. SPINAL64[49] was used in detection periods. The 2D scalar ^13C^13C TOBSY[50] experiment was acquired at 950 MHz with 8 kHz MAS at 295 K temperature with 6 ms ^13C–^13C magnetization transfer time. Chemical shift assignments were performed using standard ^1H-detected 3D CANH and CONH experiments[36],[51] in combination with 2D ^13C^13C PARISxy[48] experiments with different magnetization transfer times (see Supplementary Tables 1 and 2). DNP-enhanced 2D ^13C^13C spin diffusion (20 ms mixing time) ssNMR experiments[52] were carried out using a 263 GHz microwave frequency, 400 MHz ^1H frequency setup (Bruker Biospin) at 100 K temperature and 8.5 kHz MAS.
Lipid I or II-doped multi-laminar vesicle preparations: DOPC or DOPG lipids were mixed with Lipid I or II in 1:1 MeOH:CHCl3 at the final Lipid I or II molar ratio (0–4 mol%/mol). […]

[5] = 31P and 2D 1H31P ssNMR of pyrophosphate binding interface; conditions: membranes
Excerpt: Structural studies: To probe intermolecular contacts between ^13C,^15N-labelled [R4L10]-teixobactin molecules bound to unlabelled (^12C,^14N) Lipid II, we ran 2D ^13C^13C PARIS experiments with magnetization transfer times of 50, 300, 600, and 1000 ms at 950 MHz and 15.5 kHz MAS. To probe interfacial contacts between ^13C,^15N-labelled [R4L10]-teixobactin and ^13C,^15N-labelled Lipid II, we ran 2D ^13C^13C PARIS experiments with magnetization transfer times of 25, 50, 600, and 1000 ms at 950 MHz and 18 kHz MAS. 1D ^31P CP experiments were acquired at 500 MHz with 12 kHz MAS. The 2D ^1H^31P experiment was acquired at 800 MHz magnetic field and 60 kHz MAS using 1.75 ms CP transfer from ^1H to ^31P.
as §3

[6] = Mobility-edited ssNMR: membrane topology of Lipid II-bound teixobactin; conditions: 2D 1H(1H)13C, 700 MHz, 300 K
Method: Topological studies: The mobility-edited 2D ^1H(^1H)^13C experiment[22] was performed at 700 MHz with 16.5 kHz MAS at 300 K temperature using a T2 relaxation filter of 2.5 ms. After dephasing of the rigid signals, magnetization from mobile lipid and water molecules was transferred to the rigid antibiotic with 5 ms ^1H–^1H mixing, and subsequently transferred to ^13C nuclei of [R4L10]-teixobactin with a short (200 μs) cross-polarization step.

[7] = bound to Lys-LII in DOPC liposomes, 950 MHz/60 kHz MAS
[8] = bound to Lys-Lipid II in DOPC (Lys-LII PC)
[9] = bound to Lys-Lipid II in DOPG (Lys-LII_PG)
[10] = bound to mDAP-Lipid II in DOPC (DAP-LII_PC)
[11] = bound to mDAP-Lipid II in DOPG (DAP-LII_PG)

Substance: D-Arg4-Leu10-teixobactin ([dNMeF]IS[dR][d(aIle)]IS[dT]ALI; ester 8-C; also: 13C,15N labels at Ile2, Ser3, Ile6, Ser7 and one Ala (residue not fully stated)) [[R4L10]-teixobactin, teixobactin analogue in which D-Gln4 and L-allo-enduracididine10 are replaced by D-Arg4 and L-Leu10]
- speed of Lipid II oligomerization after addition [1]: virtually immediately
- mobility of Lipid II-bound peptide with increasing anionic membrane charge ([2]; DOPG vs DOPC, ssNMR relaxation): stark increase in mobility
- 15N R1rho, Ala9 [2, 7]: 8.95 s⁻¹
- 15N R1rho, Ile2 [2, 7]: 8.49 s⁻¹
- 15N R1rho, Ile6 [2, 7]: 7.70 s⁻¹
- 15N R1rho, Leu10 [2, 7]: 10.67 s⁻¹
- 15N R1rho, Ser3 [2, 7]: 7.40 s⁻¹
- 15N R1rho, Ser7 [2, 7]: 6.84 s⁻¹
- 15N T1rho, Ala9 [2, 7]: 111.70 ms
- 15N T1rho, Ile2 [2, 7]: 117.80 ms
- 15N T1rho, Ile6 [2, 7]: 129.90 ms
- 15N T1rho, Leu10 [2, 7]: 93.72 ms
- 15N T1rho, Ser3 [2, 7]: 135.20 ms
- 15N T1rho, Ser7 [2, 7]: 146.10 ms
- Bulk 15N R1rho [2, 8]: 9.46 s⁻¹
- Bulk 15N T1rho [2, 8]: 105.70 ms
- Bulk 15N R1rho [2, 9]: 29.61 s⁻¹
- Bulk 15N T1rho [2, 9]: 33.77 ms
- Bulk 15N R1rho [3, 10]: 22.15 s⁻¹
- Bulk 15N T1rho [3, 10]: 45.14 ms
- Bulk 15N R1rho [3, 11]: 36.17 s⁻¹
- Bulk 15N T1rho [3, 11]: 27.65 ms
- binding to Lys-Lipid I [4]: also able to bind Lys-Lipid I
- coordination of Lipid II pyrophosphate [5]: directly coordinate the pyrophosphate
- membrane localization of Lipid II-bound peptide [6]: localizes at the water–membrane interface with the non-polar residues Ile2 and Ile6 partitioned in the bilayer
